What was measured:
Type in all cases: physicochemical
[1] = Phase separation: critical solution temperature in miscibility unit; settings: 36 wt.-% aqueous solution; measurable up to 140° C.
Procedure: To determine the critical solution temperature, a miscibility unit was used. This unit allows the measurement of the temperature at which phase separation occurs (“critical solution temperature”).
The miscibility unit comprised a sight glass vessel equipped with a pressure gauge and a thermocouple. A heater was used to supply heat to the vessel. Measurements were possible up to a temperature of 140° C. The possible phase separation could be visually observed via the sight glass. In the following table, the measured critical solution temperatures are shown for different aqueous amine mixtures.

[2] = Volatility of amines in 30% by weight aqueous solutions (condensate analysis); settings: 30 wt.-% amine + 70 wt.-% H2O, 200 mL, 50° C., 30 L (STP)/h N2, 8 h; average of three experiments
Procedure: The volatility of several amines in 30% by weight aqueous solutions was examined.
The glass cylinder was regulated to 50° C., and 200 mL of the absorbent were introduced in each case. Over an experimental duration of 8 h, 30 L (STP)/h of N2 were passed through the absorbent at ambient pressure.
The experiments were repeated three times.

[3] = pKA determination by titration with aqueous hydrochloric acid; settings: aqueous amine solution; 20° C.; 0.005 mol/L amine in water titrated with 0.1 mol/L HCl
Procedure: The pKa values of MDEA and TBAPD were determined by means of titration. An aqueous solution with an amine concentration of 0.005 mol/L of amine was used and titrated with aqueous hydrochloric acid (0.1 mol/L) at 20° C.

Amine in condensate [2] [wt.-%] | Condensate [2] [mL] | Water in condensate [2] [wt.-%] | pKa [3] | Compound | Critical Solution Temperature [1]
0.7 | 30.1 | 99.2 |  | COCCOCCOCCNC(C)(C)C [M3ETB, (2-(2-(2-tert-butylaminoethoxy)ethoxy)ethyl) methyl ether] | 107° ° C.
0.7 | 30.0 | 99.3 |  | CC(C)(C)NCCOCCO [TBAEE, 2-(2-tert-butylaminoethoxy)ethanol] | 
0.2 | 28.8 | 99.5 | 9.6 | CC(C)(C)NCCN1CCCC1=O [TBAEPY, 1-[2-(tert-butylamino)ethyl]pyrrolidin-2-one] | —** (no phase separation observed at up to 140° C.)

Compound | Amine in condensate [2] [wt.-%] | Condensate [2] [mL] | Water in condensate [2] [wt.-%] | pKa [3] | Critical Solution Temperature [1]
tert-butylaminoethoxyethylmorpholine [TBAEEM] | 0.2 | 30.5 | 99.6 |  | 131° ° C.
tert-butylaminoethylmorpholine [TBAEM] | 1.6 | 34.8 | 98.0 |  | 
